# From patent publication US10517889B2, “Modulators of SMAD7 expression” (Ionis Pharmaceuticals, Inc., priority 2017, dated 2019)
# Strand notation (5' to 3'): a small letter for the sugar, then the base; units joined by * are phosphorothioate-linked, units joined directly phosphodiester-linked; [ ] holds rarer units or linkages, { } end groups; capitals alone tell only the bases. e = 2'-O-(2-methoxyethyl) (MOE); [5mC] = 5-methylcytosine; d = 2'-deoxy (DNA)
# Tested on: human SMAD7 mRNA
# Test: Antisense inhibition of human SMAD7 mRNA expression in Hep3B cells by 5-10-5 MOE gapmers, single concentration, electroporation, RT-PCR (Example 1, Study 1 and 2)
# Type: cell-based
# Conditions: for % Inhibition: Study 2, electroporation with 15,000 nM antisense oligonucleotide; for % Inhibition of SMAD7 mRNA: electroporation with 15,000 nM antisense oligonucleotide (Study 2)
# Procedure, shortened: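 Readout is percent SMAD7 mRNA inhibition versus untreated cells, measured by qRT-PCR (RTS5062) and corrected for total RNA by RIBOGREEN. Oligonucleotide, 5,000 nM or 15,000 nM, was delivered by electroporation into Hep3B cells at 20,000 per well. RNA was collected about 24 h later.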
# [1] = 5-10-5 MOE gapmers targeting SEQ ID NO: 1 and 2
# [2] = electroporation, 15,000 nM, approximately 24 hours, relative to untreated control cells, gapmers targeting SEQ ID NO: 1 and 2
# [3] = electroporation, 15,000 nM antisense oligonucleotide (Study 2), 5-10-5 MOE gapmers targeting SEQ ID NO: 1 and 2
# [4] = electroporation, 5,000 nM, approximately 24 hours, relative to untreated control cells, gapmers targeting SEQ ID NO: 1 and 2
Substance,% Inhibition [1],% inhibition of SMAD7 mRNA expression [3],also measured
771804 (antisense eG*eA*e[5mC]*eA*eG*dA*dT*dG*d[5mC]*d[5mC]*dA*dG*d[5mC]*dA*dA*eG*eG*eA*eT*e[5mC]) [compound 771804],17%,–,–
771805 (antisense eG*eA*eT*eT*eA*dT*dA*dT*dA*dG*dG*dT*dA*dT*dT*eT*eT*eT*eG*eA) [compound 771805],–,–,% inhibition of SMAD7 mRNA expression [2]: 0%
771806 (antisense eA*e[5mC]*eA*eA*eT*dG*dA*dA*dT*dA*dA*dT*dT*dG*dT*eT*e[5mC]*eA*e[5mC]*eG) [compound 771806],0%,–,–
771807 (antisense eG*e[5mC]*e[5mC]*e[5mC]*eT*d[5mC]*dA*d[5mC]*dT*d[5mC]*d[5mC]*dA*d[5mC]*dA*dA*eT*eG*eG*e[5mC]*eA) [compound 771807],51%,–,–
771809 (antisense eA*e[5mC]*e[5mC]*eT*eG*dA*dG*dT*d[5mC]*d[5mC]*d[5mC]*d[5mC]*d[5mC]*dA*dA*eA*eG*eT*e[5mC]*e[5mC]) [compound 771809],–,7%,–
771810 (antisense eG*eG*e[5mC]*eA*e[5mC]*dT*dG*d[5mC]*dA*dG*dA*dA*dG*dA*dG*eG*e[5mC]*eG*eG*eG) [compound 771810],–,46%,–
771811 (antisense eT*eG*e[5mC]*e[5mC]*eT*d[5mC]*dA*dT*dT*d[5mC]*dT*dT*dT*d[5mC]*d[5mC]*eA*eG*eG*eA*e[5mC]) [compound 771811],50%,–,% inhibition of SMAD7 mRNA expression [4]: 48%
771812 (antisense eT*eT*eA*eA*e[5mC]*d[5mC]*d[5mC]*d[5mC]*dT*dG*d[5mC]*d[5mC]*dG*dG*dA*e[5mC]*eT*eG*e[5mC]*e[5mC]) [compound 771812],26%,–,–
771813 (antisense eT*e[5mC]*eT*eT*eG*dT*d[5mC]*dT*dG*dG*d[5mC]*d[5mC]*dG*dG*d[5mC]*eA*eG*eA*eG*e[5mC]) [compound 771813],–,–,% inhibition of SMAD7 mRNA expression [2]: 38%
771814 (antisense eT*e[5mC]*e[5mC]*e[5mC]*eT*dT*dT*dG*d[5mC]*dT*dG*dG*d[5mC]*d[5mC]*d[5mC]*eA*eG*eT*eT*e[5mC]) [compound 771814],39%,–,–
771816 (antisense eA*eT*e[5mC]*e[5mC]*eA*dA*d[5mC]*dT*dA*d[5mC]*dT*d[5mC]*dA*dG*dA*eG*eG*e[5mC]*eT*eG) [compound 771816],–,27%,% Inhibition of SMAD7 mRNA [1]: 28%
771817 (antisense eG*eG*eA*eA*eT*dT*dA*dT*dG*dA*d[5mC]*dA*d[5mC]*dA*dG*eT*eA*eA*e[5mC]*eA) [compound 771817],–,19%,–
771818 (antisense eT*eG*eA*eA*eG*dA*d[5mC]*dA*dA*d[5mC]*dT*dG*d[5mC]*dT*dT*eT*eG*eA*eG*eA) [compound 771818],–,38%,–
771819 (antisense eA*eA*eT*eA*eG*dT*dT*dT*dT*d[5mC]*dT*d[5mC]*dT*d[5mC]*dA*eA*eA*eT*eG*eT) [compound 771819],20%,–,% inhibition of SMAD7 mRNA expression [4]: 56%
771823 (antisense e[5mC]*eT*eT*e[5mC]*e[5mC]*d[5mC]*dA*dT*dG*dT*dG*dA*d[5mC]*d[5mC]*dT*e[5mC]*eA*eG*eG*eG) [compound 771823],49%,–,–
771824 (antisense eT*eT*e[5mC]*eT*eA*d[5mC]*dT*dA*dG*dA*dA*dA*dA*dA*dA*eA*eT*eT*eA*eG) [compound 771824],–,0%,% Inhibition of SMAD7 mRNA [1]: 3%
771826 (antisense e[5mC]*eA*e[5mC]*e[5mC]*eA*dT*d[5mC]*d[5mC]*dT*dG*dG*dT*dT*d[5mC]*dG*e[5mC]*eA*eG*eT*e[5mC]) [compound 771826],–,31%,–

Substance,% Inhibition [1],% inhibition of SMAD7 mRNA expression [3],also measured
771827 (antisense eA*eA*eG*eG*eA*d[5mC]*dA*dT*d[5mC]*dA*d[5mC]*dA*dG*dG*dG*eA*e[5mC]*eT*eG*eG) [compound 771827],33%,–,% inhibition of SMAD7 mRNA expression [4]: 31%
771828 (antisense eG*e[5mC]*e[5mC]*e[5mC]*eT*dA*dG*dA*dA*d[5mC]*dT*dT*dG*dG*dG*e[5mC]*eA*eA*eG*eG) [compound 771828],8%,–,–
771829 (antisense eT*eG*eT*eG*e[5mC]*d[5mC]*dT*d[5mC]*dA*dG*d[5mC]*dA*dG*dT*dT*eA*eA*eT*eA*eA) [compound 771829],–,–,% inhibition of SMAD7 mRNA expression [2]: 14%
771830 (antisense eT*eT*eT*eA*eG*dG*dT*dA*dG*dA*dG*dT*dG*dG*d[5mC]*e[5mC]*eG*eG*eG*eA) [compound 771830],40%,–,–
771832 (antisense eA*e[5mC]*e[5mC]*eT*eT*dT*d[5mC]*dA*d[5mC]*dG*dA*dA*d[5mC]*d[5mC]*dA*e[5mC]*eT*eT*eT*eT) [compound 771832],–,11%,% Inhibition of SMAD7 mRNA [1]: 31%
771833 (antisense eT*eT*eA*eA*eA*dG*dA*dA*dA*dA*dT*dG*dG*d[5mC]*d[5mC]*eT*eA*e[5mC]*eA*eT) [compound 771833],–,21%,–
771834 (antisense eA*eA*e[5mC]*eA*eT*dA*dA*dA*dG*dT*dT*d[5mC]*dT*d[5mC]*dA*eA*eA*e[5mC]*eA*eG) [compound 771834],–,25%,–
771835 (antisense eA*eG*eT*eA*eA*dA*dA*dT*dG*dG*dG*dA*dA*dA*dT*eA*eA*eG*eG*e[5mC]) [compound 771835],5%,–,% inhibition of SMAD7 mRNA expression [4]: 17%
771837 (antisense eA*eG*eT*eG*eT*dT*dG*dA*dG*dG*dA*d[5mC]*dT*d[5mC]*d[5mC]*e[5mC]*e[5mC]*eA*eG*e[5mC]) [compound 771837],–,–,% inhibition of SMAD7 mRNA expression [2]: 48%
771839 (antisense e[5mC]*eA*e[5mC]*eA*eG*d[5mC]*dA*d[5mC]*d[5mC]*dG*dT*dT*dA*d[5mC]*dT*eG*eG*eA*e[5mC]*eA) [compound 771839],21%,–,–
771840 (antisense eA*eG*eA*eT*eG*d[5mC]*dT*dT*d[5mC]*dT*dA*dG*dG*dT*dG*eA*eA*e[5mC]*e[5mC]*eA) [compound 771840],–,16%,% Inhibition of SMAD7 mRNA [1]: 30%
771841 (antisense eT*eT*eT*eA*eG*dA*dA*dA*d[5mC]*d[5mC]*d[5mC]*dA*dG*dA*dG*eA*e[5mC]*eA*eA*eA) [compound 771841],–,36%,–
771842 (antisense eT*eT*eG*eT*eG*dT*dT*dA*dT*dG*dA*dA*dA*dA*d[5mC]*eA*eA*eA*eA*e[5mC]) [compound 771842],–,6%,–
771843 (antisense e[5mC]*eG*e[5mC]*e[5mC]*eG*dG*d[5mC]*d[5mC]*d[5mC]*dA*d[5mC]*d[5mC]*dA*dA*d[5mC]*e[5mC]*eT*e[5mC]*eT*eG) [compound 771843],17%,–,% inhibition of SMAD7 mRNA expression [4]: 19%
771844 (antisense eG*eA*eA*eG*eG*dA*d[5mC]*d[5mC]*dA*dA*dG*dT*d[5mC]*d[5mC]*d[5mC]*eT*e[5mC]*eT*e[5mC]*e[5mC]) [compound 771844],0%,–,–
771845 (antisense eT*eT*e[5mC]*e[5mC]*eA*dA*dG*d[5mC]*dA*d[5mC]*dG*dG*dA*dG*dT*e[5mC]*eA*eG*e[5mC]*e[5mC]) [compound 771845],–,–,% inhibition of SMAD7 mRNA expression [2]: 39%
